Source: patent EP0385936A1, “Peptide lactone and derivatives thereof, process for their production and means for carrying out the process” (CIBA-GEIGY AG, priority 1989, dated 1990)
In brackets after ≈: the same amount, converted by molar mass.

Experiments:
[1] = tested on: Arthrobacter crystallopoietes ATCC 15481; assay: Agar dilution series test, minimal inhibitory concentration; assay type: cell-based; conditions: Crystallibacter crystallopoietes, ATCC15481, in vitro, read-out: Minimale Hemmkonzentration
Procedure: (§1) Hormaomycin zeigt in vitro in einem Agar-Verdünnungsreihentest eine antimikrobielle Wirkung gegen einige Bakterien, z.B. Arthrobacter crystallopoites, Arthrobacter oxydans, Corynebacterium species, Brevibacterium linens und Salmonella typhimurium. Die minimale Hemmkonzentration liegt im Bereich zwischen 0,0001 und 50 µg/ml. Die nachfolgende Tabelle offenbart einige spezifische Beispiele: […]

[2] = tested on: Arthrobacter oxydans ATCC 14358; assay: as above; assay type: cell-based; conditions: Pseudarthrobacter oxydans, ATCC14358, in vitro, read-out: Minimale Hemmkonzentration
Procedure: as §1

[3] = tested on: Brevibacterium linens ATCC 9172; assay: as above; assay type: cell-based; conditions: ATCC9172, in vitro, read-out: Minimale Hemmkonzentration
Procedure: as §1

[4] = tested on: Corynebacterium sp. ATCC 23830; assay: as above; assay type: cell-based; conditions: ATCC23830, in vitro, read-out: Minimale Hemmkonzentration
Procedure: as §1

[5] = tested on: Salmonella typhimurium ATCC 13311; assay: as above; assay type: cell-based; conditions: Salmonella enterica, in vitro, read-out: Minimale Hemmkonzentration
Procedure: as §1

[6] = tested on: Streptomyces griseoflavus (Tü 1306); assay: Increase of tirandamycin production in fermentation broth; assay type: cell-based
Procedure: (§2) Hormaomycin bewirkt bereits in einer Konzentration ab etwa 0,05 µg/ml bei einigen Streptomyceten-Stämmen eine Erhöhung der Bildung von Antibiotika.

[7] = tested on: einigen Streptomyceten-Stämmen; assay: Increase of antibiotic formation in Streptomyces strains; assay type: cell-based; conditions: lowest effective concentration; read-out: Konzentration, ab der eine Erhöhung der Bildung von Antibiotika bewirkt wird
Procedure: as §2

[8] = tested on: Streptomyces griseoflavus (DSM 5195); assay: Induction of aerial mycelium on test plates (paper disc on agar); assay type: cell-based; conditions: 1 µg in a paper disc on agar on which no aerial mycelium develops
Text: Hormaomycin induziert die Luftmycelbildung von Streptomyces griseoflavus (DSM 5195) und von weiteren Streptomyces-Stämmen. […] Zusätzlich induziert die Substanz die Antibiotikaproduktion in diesen Stämmen.

[9] = tested on: durch anti-CD 3 monoklonale Antikörper induzierten T-Zell-Proliferation in menschlichem Blut; assay: Inhibition of T-cell proliferation induced by anti-CD 3 monoclonal antibodies in human blood (3H-thymidine); assay type: cell-based, menschlich; conditions: 50 ng/ml anti-CD 3 antibody, 48 h + 16 h 3H-thymidine, read-out: IC₅₀
Procedure: Hemmung der durch anti-CD 3 monoklonale Antikörper induzierten T-Zell-Proliferation in menschlichem Blut
Venöses menschliches Blut wird mit 10 Einheiten Heparin pro ml versetzt und im Verhältnis 1:6 (v:v) mit RPMI 1640 Medium (Gibco) verdünnt. Nach Zugabe von 50 ng/ml anti-CD 3 monoklonalen Antikörpern (TR 66, IgG1K) werden pro Loch 150 µl verdünntes Blut in eine Lochtiterplatte mit 96 Löchern eingefüllt. Dann werden pro Loch 50 µl einer Verbindung der Formeln I oder III in dem obengenannten RPMI Medium hinzugefügt. Als Referenzverbindungen verwendet man Cyclosporin A (CSA, Sandoz, Basel, Schweiz) oder Prednisolon.
Nach 48 Stunden bei 37°C und einem Gehalt von 7 Volumenprozent CO₂ in der Luft fügt man pro Loch 1.0 µCi ³H-Thymidin in 10 µl RPMI Medium (Amersham: spezifische Aktivität 5 Ci/mMol).
Nach weiteren 16 Stunden werden die Zellen mit einer 96-Loch-Erntemaschine (LKB, Bromma, Schweden) auf Glasfiberfiltern (LKB) geerntet. Nach dem Trocknen der Filter wird ihre Radioaktivität gemessen (Optiscint[LKB], Betaplatten-Scintillations-Zähler [LKB]). Die Ergebnisse werden als Durchschnittswerte der für jedes Loch bei drei verschiedenen Konzentrationen in An- und Abwesenheit der Prüfsubstanzen ermittelten cpm (counts pro Minute) ausgedrückt und die Wirkung der Substanzen wird als prozentuale Hemmung angegeben, welche folgendermassen definiert ist: [formula] […]

[10] = tested on: durch Interleukin-2 induzierten T-Zell-Proliferation in menschlichem Blut; assay: Inhibition of T-cell proliferation induced by interleukin-2 in human blood (3H-thymidine); assay type: cell-based, menschlich; conditions: 100 Einheiten/ml recombinant interleukin-2, read-out: IC₅₀
[11] = Solubility in solvents (qualitative); assay type: physicochemical
Text: Hormaomycin ist neutral, löst sich gut in Methanol, Chloroform, Aceton und Essigsäureethylester und ist in Wasser oder Hexan unlöslich. Auf Dünnschichtchromatographie-Platten löscht es UV-Licht (254 nm), färbt sich beim Stehen an der Luft langsam gelb und lässt sich nach Barrollier (blaugrün) und mit Ehrlich's Reagenz (blass violett), nicht jedoch mit Ninhydrin anfärben.

## C/C=C\C1CC2C(=O)OC(C)C(NC(=O)C(CC3CC3[N+](=O)[O-])NC(=O)c3ccc(Cl)n3O)C(=O)NC(C(C)c3ccccc3)C(=O)NC(CC3CC3[N+](=O)[O-])C(=O)NC(C(C)c3ccccc3)C(=O)NC(C(C)CC)C(=O)N2C1 (stereo not shown) [Hormaomycin]
[1]
  MIC: 0.0001 µg/mL (≈ 0.0885 nM)
[2]
  MIC: 0.0005 µg/mL (≈ 0.443 nM)
[3]
  MIC: 10 µg/mL (≈ 8850 nM)
[4]
  MIC: 0.1 µg/mL (≈ 88.5 nM)
[5]
  MIC: 50 µg/mL (≈ 44300 nM)
[6]; Hormaomycin 0,05 µg/ml added to fermentation broth
  Produktion des Antibiotikums Tirandamycin: Verdoppelung
[6]; Hormaomycin 1 µg/ml added to fermentation broth
  Produktion des Antibiotikums Tirandamycin: ungefähre Vervierfachung
[7]
  minimal effective concentration: ~0.05 µg/mL
[8]
  Luftmycelbildung: reichliche Luftmycelbildung
[9]
  IC50: 1.5 to 15 µM
[10]
  IC50: 4 to 40 µM
[11]; in Methanol, Chloroform, Aceton und Essigsäureethylester
  Löslichkeit: löst sich gut
[11]; in Wasser oder Hexan
  Löslichkeit: unlöslich
